This experiment deals with CD2F1 mice, L1210 leukemia ip, survival T/C. In words: NCI In Vivo Anticancer Drug Screen. Data for tumor model L1210 Leukemia (intraperitoneal) in CD2F1 (CDF1) mice. Particulars: higher = longer survival. In outline: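 Tumor-bearing mice (transplanted tumor) were split into treated and vehicle control groups, and the measured endpoint of each treated group was divided by that of its vehicle controls.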

The mark [1] stands for this setting: endpoint: mean survival time, dose: 50.0 mg/kg/injection, schedule: Q01DX009 (ip), vehicle: saline with Tween-80.
The mark [2] stands for this setting: endpoint: mean survival time, dose: 100.0 mg/kg/injection, schedule: Q01DX009 (ip), vehicle: saline with Tween-80.
[3] abbreviates: endpoint: mean survival time, dose: 200.0 mg/kg/injection, schedule: Q01DX009 (ip), vehicle: saline with Tween-80.
The mark [4] stands for this setting: endpoint: mean survival time, dose: 75.0 mg/kg/injection, schedule: Q01DX001 (ip), vehicle: saline.
[5] abbreviates: endpoint: mean survival time, dose: 100.0 mg/kg/injection, schedule: Q04DX003 (ip), vehicle: saline with Tween-80.
Where [6] appears, read: endpoint: mean survival time, dose: 200.0 mg/kg/injection, schedule: Q04DX003 (ip), vehicle: saline with Tween-80.
Setting [7] is: endpoint: mean survival time, dose: 400.0 mg/kg/injection, schedule: Q01DX009 (ip), vehicle: saline with Tween-80.
[8] abbreviates: endpoint: mean survival time, dose: 400.0 mg/kg/injection, schedule: Q04DX003 (ip), vehicle: saline with Tween-80.
Where [9] appears, read: endpoint: mean survival time, dose: 100.0 mg/kg/injection, schedule: Q01DX001 (ip), vehicle: saline.
[10] abbreviates: endpoint: mean survival time, dose: 100.0 mg/kg/injection, schedule: Q04DX003 (ip), vehicle: saline.
Setting [11] is: endpoint: mean survival time, dose: 200.0 mg/kg/injection, schedule: Q01DX001 (ip), vehicle: saline.
The mark [12] stands for this setting: endpoint: mean survival time, dose: 200.0 mg/kg/injection, schedule: Q04DX003 (ip), vehicle: saline.
The mark [13] stands for this setting: endpoint: mean survival time, dose: 400.0 mg/kg/injection, schedule: Q04DX003 (ip), vehicle: saline.
The mark [14] stands for this setting: endpoint: mean survival time, dose: 100.0 mg/kg/injection, schedule: Q01DX001 (ip), vehicle: saline with Tween-80.
The mark [15] stands for this setting: endpoint: mean survival time, dose: 200.0 mg/kg/injection, schedule: Q01DX001 (ip), vehicle: saline with Tween-80.
Where [16] appears, read: endpoint: mean survival time, dose: 400.0 mg/kg/injection, schedule: Q01DX001 (ip), vehicle: saline with Tween-80.

Consider 20 compounds from PubChem BioAssay AID256 (DTP/NCI, 2004).

Molecules are shown by their SMILES. Toxic doses and inconclusive results are not listed.

With `COc1cc(OC)c(NC(=O)OCCON2CCNC2=O)cc1Cl`, the T/C under setting [1] is 90 % of control, the T/C under setting [2] was 90 % of control and the T/C under setting [3] is 97 % of control.
Regarding `COC(=O)C1C2CC3c4[nH]c5cc(OC)c(Br)cc5c4CCN3CC2CC(OC(=O)c2cc(OC)c(OC)c(OC)c2)C1OC` (stereo not given), the T/C was 92 % of control under setting [4]; 103 % of control (endpoint: mean survival time, dose: 150.0 mg/kg/injection, schedule: Q01DX001 (ip), vehicle: saline); 105 % of control (endpoint: mean survival time, dose: 300.0 mg/kg/injection, schedule: Q01DX001 (ip), vehicle: saline).
In the case of `CCCC[As](=O)(O)C(C)C`, the T/C (endpoint: mean survival time, dose: 2.7 mg/kg/injection, schedule: Q01DX009 (ip), vehicle: saline) is 93 % of control; the T/C (endpoint: mean survival time, dose: 4.1 mg/kg/injection, schedule: Q01DX009 (ip), vehicle: saline) is 102 % of control; the T/C (endpoint: mean survival time, dose: 5.5 mg/kg/injection, schedule: Q04DX003 (ip), vehicle: saline) was 100 % of control; the T/C (endpoint: mean survival time, dose: 6.25 mg/kg/injection, schedule: Q01DX009 (ip), vehicle: saline) was 104 % of control; the T/C (endpoint: mean survival time, dose: 8.2 mg/kg/injection, schedule: Q04DX003 (ip), vehicle: saline) is 104 % of control; the T/C (endpoint: mean survival time, dose: 9.3 mg/kg/injection, schedule: Q01DX009 (ip), vehicle: saline) is 100 % of control. In addition, the T/C is, setting by setting: (endpoint: mean survival time, dose: 11.0 mg/kg/injection, schedule: Q04DX002 (ip), vehicle: saline) 106 % of control; (endpoint: mean survival time, dose: 12.5 mg/kg/injection, schedule: Q04DX003 (ip), vehicle: saline) 104 % of control; (endpoint: mean survival time, dose: 14.0 mg/kg/injection, schedule: Q01DX009 (ip), vehicle: saline) 93 % of control; (endpoint: mean survival time, dose: 16.0 mg/kg/injection, schedule: Q04DX002 (ip), vehicle: saline) 113 % of control; (endpoint: mean survival time, dose: 18.0 mg/kg/injection, schedule: Q04DX003 (ip), vehicle: saline) 100 % of control; (endpoint: mean survival time, dose: 22.0 mg/kg/injection, schedule: Q01DX001 (ip), vehicle: saline) 104 % of control. Also, the T/C is 100 % of control (endpoint: mean survival time, dose: 25.0 mg/kg/injection, schedule: Q04DX002 (ip), vehicle: saline); 102 % of control (endpoint: mean survival time, dose: 28.0 mg/kg/injection, schedule: Q04DX003 (ip), vehicle: saline); 102 % of control (endpoint: mean survival time, dose: 35.0 mg/kg/injection, schedule: Q01DX001 (ip), vehicle: saline); 111 % of control (endpoint: mean survival time, dose: 35.0 mg/kg/injection, schedule: Q04DX002 (ip), vehicle: saline); 104 % of control (endpoint: mean survival time, dose: 50.0 mg/kg/injection, schedule: Q01DX001 (ip), vehicle: saline); 95 % of control (endpoint: mean survival time, dose: 55.0 mg/kg/injection, schedule: Q04DX002 (ip), vehicle: saline). Besides, the T/C under setting [4] was 111 % of control.
For `O=S(=O)(O)O.[NH-]C1CCCCC1C1CCCCC1[NH-].[Pt+2]` (stereo not given), the T/C runs as follows: (endpoint: mean survival time, dose: 3.12 mg/kg/injection, schedule: Q04DX003 (ip), vehicle: distilled water + Tween-80) 119 % of control; (endpoint: mean survival time, dose: 12.5 mg/kg/injection, schedule: Q04DX003 (ip), vehicle: distilled water + Tween-80) 156 % of control.
For `O=C(OCC1OC(n2cc[n+]([O-])nc2=O)C(OC(=O)c2ccccc2)C1OC(=O)c1ccccc1)c1ccccc1` (stereo not given), the T/C by setting is: (endpoint: mean survival time, dose: 25.0 mg/kg/injection, schedule: Q01DX005 (ip), vehicle: other) 90 % of control; (endpoint: mean survival time, dose: 50.0 mg/kg/injection, schedule: Q01DX005 (ip), vehicle: other) 101 % of control; (endpoint: mean survival time, dose: 100.0 mg/kg/injection, schedule: Q01DX005 (ip), vehicle: other) 104 % of control; (endpoint: mean survival time, dose: 200.0 mg/kg/injection, schedule: Q01DX005 (ip), vehicle: other) 122 % of control; (endpoint: mean survival time, dose: 400.0 mg/kg/injection, schedule: Q01DX005 (ip), vehicle: other) 113 % of control.
For the compound `Cc1ccc(S(=O)(=O)NC(=O)c2ccccc2)cc1`, the T/C is 95 % of control under setting [2]; 98 % of control under setting [5]; 98 % of control under setting [3]; 102 % of control under setting [6]; 95 % of control under setting [7]; 101 % of control under setting [8].
As to `O=S(=O)(O)Cc1ccccc1O`, the T/C runs as follows: under setting [9], 100 % of control; under setting [10], 96 % of control; under setting [11], 100 % of control; under setting [12], 95 % of control; (endpoint: mean survival time, dose: 400.0 mg/kg/injection, schedule: Q01DX001 (ip), vehicle: saline) 102 % of control; under setting [13], 89 % of control.
Regarding `Cc1cnc(/C=N\NC(N)=S)c2cccc(N)c12`, the T/C was 124 % of control (endpoint: mean survival time, dose: 3.13 mg/kg/injection, schedule: Q01DX009 (ip), vehicle: Klucel (hydroxypropylcellulose) (HPC)); 122 % of control (endpoint: mean survival time, dose: 3.13 mg/kg/injection, schedule: Q01DX009 (ip), vehicle: saline with Tween-80); 123 % of control (endpoint: mean survival time, dose: 5.4 mg/kg/injection, schedule: Q03HX024 (ip), vehicle: Klucel (hydroxypropylcellulose) (HPC)); 151 % of control (endpoint: mean survival time, dose: 8.0 mg/kg/injection, schedule: Q03HX024 (ip), vehicle: Klucel (hydroxypropylcellulose) (HPC)); 112 % of control (endpoint: mean survival time, dose: 12.0 mg/kg/injection, schedule: Q03HX024 (ip), vehicle: Klucel (hydroxypropylcellulose) (HPC)); 168 % of control (endpoint: mean survival time, dose: 25.0 mg/kg/injection, schedule: Q01DX009 (ip), vehicle: Klucel (hydroxypropylcellulose) (HPC)). The T/C (endpoint: mean survival time, dose: 50.0 mg/kg/injection, schedule: Q01DX009 (ip), vehicle: Klucel (hydroxypropylcellulose) (HPC)) is 89 % of control; the T/C (endpoint: median survival time, dose: 3.89 mg/kg/injection, schedule: Q01DX005 (ip), vehicle: other) is 114 % of control; the T/C (endpoint: median survival time, dose: 6.48 mg/kg/injection, schedule: Q01DX005 (ip), vehicle: other) is 122 % of control.
Consider `O=[N+]([O-])c1c(Cl)c(Cl)cc(Cl)c1Cl`, for which the T/C by setting is: under setting [2], 94 % of control; under setting [5], 93 % of control; under setting [3], 96 % of control; under setting [6], 97 % of control; under setting [7], 98 % of control; under setting [8], 98 % of control.
In the case of `COc1ccc(OC)c(NC(=O)OCC(F)(F)F)c1`, the T/C is 97 % of control under setting [1] and 103 % of control under setting [3].
Consider `O=C1CC(c2ccccc2)CO1` (stereo not given), for which the T/C was 106 % of control under setting [9] and 100 % of control under setting [11].
`CC(=O)OCC(OC(C)=O)C(OC(C)=O)C(OC(C)=O)C(OC(C)=O)C(=O)C=O` (stereo not given): the T/C under setting [1] was 101 % of control, the T/C under setting [2] was 101 % of control and the T/C under setting [3] is 109 % of control.
As for `Nc1cccc(CCc2ccc(-c3nc4ncnc(N)c4[nH]3)cc2)c1`, the T/C under setting [14] is 86 % of control, the T/C under setting [15] is 88 % of control and the T/C under setting [16] is 93 % of control.
For the compound `COCCOCCOCCOCCOCCN`, the T/C reads like this: under setting [10], 103 % of control; under setting [12], 101 % of control; under setting [13], 103 % of control.
`O=C1/C(=C\c2ccc(Cl)cc2)SC(=S)N1/N=C/c1ccc(Cl)cc1`: the T/C is, setting by setting: (endpoint: mean survival time, dose: 25.0 mg/kg/injection, schedule: Q01DX001 (ip), vehicle: saline with Tween-80) 97 % of control; (endpoint: mean survival time, dose: 50.0 mg/kg/injection, schedule: Q01DX001 (ip), vehicle: saline with Tween-80) 94 % of control; under setting [14], 90 % of control; under setting [15], 87 % of control.
As for `O=C(N/N=C/c1ccccc1O)c1ccccc1O`, the T/C is 93 % of control under setting [2], 95 % of control under setting [3] and 93 % of control under setting [7].
Turning to `COc1ccc2[nH]c3cc(Cl)ccc3c(=O)c2c1`, the T/C was 87 % of control under setting [14] and 90 % of control under setting [16].
Consider `COC(=O)CCCC1CCC(=NNc2ccc([N+](=O)[O-])cc2[N+](=O)[O-])CC1` (stereo not given), for which the T/C under setting [5] is 86 % of control, the T/C under setting [6] is 96 % of control and the T/C under setting [8] was 93 % of control.
As to `Nc1ccc(N=Nc2ccc3nccc(N)c3c2)c(N)n1`, the T/C is, setting by setting: (endpoint: mean survival time, dose: 100.0 mg/kg/injection, schedule: Q04DX002 (ip), vehicle: saline with Tween-80) 119 % of control; (endpoint: mean survival time, dose: 200.0 mg/kg/injection, schedule: Q04DX002 (ip), vehicle: saline with Tween-80) 119 % of control; (endpoint: mean survival time, dose: 400.0 mg/kg/injection, schedule: Q04DX002 (ip), vehicle: saline with Tween-80) 119 % of control.
`CC(C)C(C)OC(=O)Nc1cccc(O)c1` (stereo not given): the T/C was 99 % of control under setting [5], 97 % of control under setting [6] and 97 % of control under setting [8].
